“And” between values parts separate entries of the source, which are not always exact repeats. Equal entries are not always repeated.
Experiments:
[1] = 101 kPa, Liquid; for speed of sound: Pulse-echo method
[2] = refractive index (Na D-line) (dimensionless); conditions: 101.33 kPa, Liquid, Standard Abbe refractometry
[3] = xn = mol fraction of the nth substance listed; conditions: 101 kPa, Liquid; for speed of sound: Pulse-echo method
[4] = refractive index (Na D-line) (dimensionless); xn = mol fraction of the nth substance listed; conditions: 101 kPa, Liquid, Standard Abbe refractometry

c1ccccc1 [benzene]
Conditions	mass density, [1]	refractive index, [2]	speed of sound, [1] [m/s]
283.15 K	889.5 kg/m3	1.50765	1371
298.15 K	873.9 kg/m3 and 873.6 kg/m3	1.49774	1299

C1CCCCC1 [cyclohexane]
Conditions	mass density, [1] [kg/m3]	refractive index, [2]	speed of sound, [1] [m/s]
283.15 K	787.8	1.43193	1329
298.15 K	773.9	1.4236	1255

C1CCCCCCC1 [cyclooctane]
298.15 K
Conditions	mass density [kg/m3]	refractive index	speed of sound [m/s]
[1]	831.5	–	1391
[2]	–	1.45598	–

CCc1ccccc1 [ethylbenzene]
Conditions	mass density, [1] [kg/m3]	refractive index, [2]	speed of sound, [1] [m/s]
283.15 K	875.7	1.50129	1382
298.15 K	862.5	1.49304	1319

CC1CCCCC1 [methylcyclohexane]
Conditions	mass density, [1] [kg/m3]	refractive index, [2]	speed of sound, [1] [m/s]
283.15 K	777.9	1.42833	1281
298.15 K	765.1	1.42062	1215

CC1CCCCC1 [methylcyclohexane] + Cc1ccccc1
Conditions	mass density, [3] [kg/m3]	refractive index, [4]	speed of sound, [3] [m/s]
283.15 K, x1 = 0.05	869.8	1.49797	1363
283.15 K, x1 = 0.0998	863.7	1.49331	1356
283.15 K, x1 = 0.198	852	1.48436	1342
283.15 K, x1 = 0.2951	841	1.47614	1330
283.15 K, x1 = 0.3968	830.3	1.46797	1320
283.15 K, x1 = 0.4959	820.3	1.46042	1311
283.15 K, x1 = 0.5973	810.7	1.45319	1302
283.15 K, x1 = 0.697	801.8	1.44643	1296
283.15 K, x1 = 0.7954	793.5	1.44018	1290
283.15 K, x1 = 0.8932	785.8	1.4342	1285
283.15 K, x1 = 0.9487	781.6	1.43118	1283
283.15 K, x1 = 1	777.9	1.42833	1281
298.15 K, x1 = 0.05	855.9	1.48937	1297
298.15 K, x1 = 0.0998	849.9	1.48481	1290
298.15 K, x1 = 0.198	838.2	1.47597	1276
298.15 K, x1 = 0.2951	827.4	1.4678	1264
298.15 K, x1 = 0.3968	816.8	1.45982	1253
298.15 K, x1 = 0.4959	806.9	1.45225	1244
298.15 K, x1 = 0.5973	797.4	1.44519	1236
298.15 K, x1 = 0.697	788.6	1.4385	1229
298.15 K, x1 = 0.7954	780.4	1.43233	1223
298.15 K, x1 = 0.8932	772.7	1.42635	1219
298.15 K, x1 = 0.9487	768.6	1.42344	1216
298.15 K, x1 = 1	765.1	1.42062	1215

CC1CCCCC1 [methylcyclohexane] + c1ccccc1
Conditions	mass density, [3] [kg/m3]	refractive index, [4]	speed of sound, [3] [m/s]
283.15 K, x1 = 0.0504	880.6	1.50135	1359
283.15 K, x1 = 0.099	872.4	1.49548	1350
283.15 K, x1 = 0.1998	856.9	1.48438	1333
283.15 K, x1 = 0.2978	843.4	1.47501	1320
283.15 K, x1 = 0.3991	830.7	1.46578	1308
283.15 K, x1 = 0.4993	819.5	1.45783	1299
283.15 K, x1 = 0.598	809.6	1.45078	1293
283.15 K, x1 = 0.6991	800.5	1.44435	1288
283.15 K, x1 = 0.7981	792.4	1.43862	1284
283.15 K, x1 = 0.8961	784.9	1.4333	1282
283.15 K, x1 = 0.9523	781	1.43058	1282
283.15 K, x1 = 1	777.9	1.42833	1281
298.15 K, x1 = 0.0504	865	1.49162	1289
298.15 K, x1 = 0.099	857.1	1.48594	1280
298.15 K, x1 = 0.1998	841.9	1.47509	1263
298.15 K, x1 = 0.2978	828.8	1.46597	1250
298.15 K, x1 = 0.3991	816.5	1.45706	1240
298.15 K, x1 = 0.4993	805.7	1.44934	1231
298.15 K, x1 = 0.598	796	1.44247	1225
298.15 K, x1 = 0.6991	787.2	1.43623	1220
298.15 K, x1 = 0.7981	779.3	1.43061	1217
298.15 K, x1 = 0.8961	772	1.42549	1216
298.15 K, x1 = 0.9523	768.2	1.42279	1215
298.15 K, x1 = 1	765.1	1.42062	1215

Cc1ccccc1 [toluene]
Conditions	mass density, [1] [kg/m3]	refractive index, [2]	speed of sound, [1] [m/s]
283.15 K	876.1	1.50278	1371
298.15 K	862.2	1.49399	1305

Cc1ccccc1 [toluene] + C1CCCCC1
x2 = 0
Conditions	mass density, [3] [kg/m3]	refractive index, [4]	speed of sound, [3] [m/s]
283.15 K	876.1	1.50278	1371
298.15 K	862.2	1.49399	1305

Cc1ccccc1 [toluene] + C1CCCCCCC1
298.15 K, x2 = 0
Conditions	mass density [kg/m3]	refractive index	speed of sound [m/s]
[3]	862.2	–	1305
[4]	–	1.49399	–

Cc1ccccc1 [toluene] + CC1CCCCC1
x2 = 0
Conditions	mass density, [3] [kg/m3]	refractive index, [4]	speed of sound, [3] [m/s]
283.15 K	876.1	1.50278	1371
298.15 K	862.2	1.49399	1305

Reference: the NIST ThermoML archive (doi:10.1021/je900468u)
